This note sets out measurements from ChEMBL document CHEMBL1145206, “Design, synthesis and structure-activity relationships of novel taxane-based multidrug resistance reversal agents” (2005).

The test system of this assay is MDA-MB-435. Kind of assay: MDR-reversal activity evaluated against the resistant human breast tumor cell line MDA-435/LCC6-MDR. The format is functional. Also noted: concentration or dose not given beside the values.
Consider `CC(=O)O[C@H]1C(=O)[C@]2(C)[C@@H](OC(=O)Cn3ccc4ccccc43)C[C@H]3OC[C@@]3(OC(C)=O)[C@H]2[C@H](OC(=O)c2ccccc2)[C@]2(O)C[C@H](OC(C)=O)C(C)=C1C2(C)C`, for which the Reduction was 83%. In the case of `CC(=O)O[C@H]1C(=O)[C@]2(C)[C@@H](OC(=O)/C=C/c3ccc(Oc4ccccc4)cc3)C[C@H]3OC[C@@]3(OC(C)=O)[C@H]2[C@H](OC(=O)c2ccccc2)[C@]2(O)C[C@H](OC(C)=O)C(C)=C1C2(C)C`, the Reduction was 90%. `CC(=O)O[C@H]1C(=O)[C@]2(C)[C@@H](OC(=O)/C=C/c3ccc(C(=O)c4ccc(F)cc4)cc3)C[C@H]3OC[C@@]3(OC(C)=O)[C@H]2[C@H](OC(=O)c2ccccc2)[C@]2(O)C[C@H](OC(C)=O)C(C)=C1C2(C)C`: the Reduction is 92%. Take `CC(=O)O[C@H]1C(=O)[C@]2(C)[C@@H](OC(=O)/C=C/c3ccc(Sc4ccccc4)cc3)C[C@H]3OC[C@@]3(OC(C)=O)[C@H]2[C@H](OC(=O)c2ccccc2)[C@]23OC(=O)O[C@H]2[C@H](OC(C)=O)C(C)=C1C3(C)C`: the Reduction is given as 63%. The value for `CC(=O)O[C@H]1C(=O)[C@]2(C)[C@@H](OC(=O)Cc3ccc(C(=O)c4ccccc4)cc3)C[C@H]3OC[C@@]3(OC(C)=O)[C@H]2[C@H](OC(=O)c2ccccc2)[C@]2(O)C[C@H](OC(C)=O)C(C)=C1C2(C)C` was 41%; that for `CC(=O)O[C@H]1C(=O)[C@]2(C)[C@@H](OC(=O)CCc3ccc(C(O)c4ccccc4)cc3)C[C@H]3OC[C@@]3(OC(C)=O)[C@H]2[C@H](OC(=O)c2ccccc2)[C@]2(O)C[C@H](OC(C)=O)C(C)=C1C2(C)C` (some centres not stated) was 48%.

With `CC(=O)O[C@H]1C(=O)[C@]2(C)[C@@H](OC(=O)CC3c4ccccc4-c4ccccc43)C[C@H]3OC[C@@]3(OC(C)=O)[C@H]2[C@H](OC(=O)c2ccccc2)[C@]2(O)C[C@H](OC(C)=O)C(C)=C1C2(C)C`, the Reduction is reported as 67%. As to `CC(=O)O[C@H]1C(=O)[C@]2(C)[C@@H](OC(=O)CCc3ccc4c(c3)C(=O)c3ccccc3C4=O)C[C@H]3OC[C@@]3(OC(C)=O)[C@H]2[C@H](OC(=O)c2ccccc2)[C@]2(O)C[C@H](OC(C)=O)C(C)=C1C2(C)C`, the Reduction is 29%. On to `CC(=O)O[C@H]1C(=O)[C@]2(C)[C@@H](OC(=O)Cc3ccc(C(=O)c4ccccc4)cc3)C[C@H]3OC[C@@]3(OC(C)=O)[C@H]2[C@H](OC(=O)c2ccccc2)[C@]23OC(=O)O[C@H]2[C@H](OC(C)=O)C(C)=C1C3(C)C`, for which the Reduction was found to be 44%. `CC(=O)O[C@H]1C(=O)[C@]2(C)[C@@H](OC(=O)CCCCc3ccc(C(=O)c4ccccc4)cc3)C[C@H]3OC[C@@]3(OC(C)=O)[C@H]2[C@H](OC(=O)c2ccccc2)[C@]23OC(=O)O[C@H]2[C@H](OC(C)=O)C(C)=C1C3(C)C`: the Reduction is on record as 0%. For `C=C(c1ccccc1)c1cccc(/C=C/C(=O)O[C@H]2C[C@H]3OC[C@@]3(OC(C)=O)[C@H]3[C@H](OCc4ccccc4)[C@]4(O)C[C@H](OC(C)=O)C(C)=C([C@@H](OC(C)=O)C(=O)[C@]23C)C4(C)C)c1`, the Reduction was 52%.

Consider `CC(=O)O[C@H]1C(=O)[C@]2(C)[C@@H](OC(=O)/C=C/c3ccc4ccccc4c3)C[C@H]3OC[C@@]3(OC(C)=O)[C@H]2[C@H](OC(=O)c2ccccc2)[C@]23OC(=O)O[C@H]2[C@H](OC(C)=O)C(C)=C1C3(C)C`, for which the Reduction came out at 60%.

For `CC(=O)O[C@H]1C(=O)[C@]2(C)[C@@H](OC(=O)COc3ccc4ccccc4c3)C[C@H]3OC[C@@]3(OC(C)=O)[C@H]2[C@H](OC(=O)c2ccccc2)[C@]2(O)C[C@H](OC(C)=O)C(C)=C1C2(C)C`, the Reduction is 86%.

In the case of `CC(=O)O[C@H]1C(=O)[C@]2(C)[C@@H](OC(=O)Cc3ccc(-c4ccccc4)cc3)C[C@H]3OC[C@@]3(OC(C)=O)[C@H]2[C@H](OC(=O)c2ccccc2)[C@]2(O)C[C@H](OC(C)=O)C(C)=C1C2(C)C`, the Reduction is listed as 57%. On to `CC(=O)O[C@H]1C(=O)[C@]2(C)[C@@H](OC(=O)/C=C/c3ccc(Sc4ccccc4)cc3)C[C@H]3OC[C@@]3(OC(C)=O)[C@H]2[C@H](OC(=O)c2ccccc2)[C@]2(O)C[C@H](OC(C)=O)C(C)=C1C2(C)C`, for which the Reduction turned out to be 64%. Regarding `CC(=O)O[C@H]1C(=O)[C@]2(C)[C@@H](OC(=O)/C=C/c3cccc(C(=O)c4ccc(C)cc4)c3)C[C@H]3OC[C@@]3(OC(C)=O)[C@H]2[C@H](OCc2ccccc2)[C@]2(O)C[C@H](OC(C)=O)C(C)=C1C2(C)C`, the Reduction came out at 91%.

Take `CC(=O)O[C@H]1C(=O)[C@]2(C)[C@@H](OC(=O)/C=C/c3ccc(Oc4ccccc4)cc3)C[C@H]3OC[C@@]3(OC(C)=O)[C@H]2[C@H](OC(=O)c2ccccc2)[C@]23OC(=O)O[C@H]2[C@H](OC(C)=O)C(C)=C1C3(C)C`: the Reduction was determined as 90%. For `CC(=O)O[C@H]1C(=O)[C@]2(C)[C@@H](OC(=O)c3ccc(C(=O)c4ccccc4)cc3)C[C@H]3OC[C@@]3(OC(C)=O)[C@H]2[C@H](OC(=O)c2ccccc2)[C@]23OC(=O)O[C@H]2[C@H](OC(C)=O)C(C)=C1C3(C)C`, the Reduction was 92%. The value for `CC(=O)O[C@H]1C(=O)[C@]2(C)[C@@H](OC(=O)c3ccnc4ccccc34)C[C@H]3OC[C@@]3(OC(C)=O)[C@H]2[C@H](OC(=O)c2ccccc2)[C@]2(O)C[C@H](OC(C)=O)C(C)=C1C2(C)C` was 36%; that for `CC(=O)O[C@H]1C(=O)[C@]2(C)[C@@H](OC(=O)CCc3ccc(Cc4ccccc4)cc3)C[C@H]3OC[C@@]3(OC(C)=O)[C@H]2[C@H](OC(=O)c2ccccc2)[C@]2(O)C[C@H](OC(C)=O)C(C)=C1C2(C)C` was 16%; that for `CC(=O)O[C@H]1C(=O)[C@]2(C)[C@@H](OC(=O)CCc3c(F)c(F)c(F)c(F)c3F)C[C@H]3OC[C@@]3(OC(C)=O)[C@H]2[C@H](OC(=O)c2ccccc2)[C@]2(O)C[C@H](OC(C)=O)C(C)=C1C2(C)C` was 59%. As for `CC(=O)O[C@H]1C(=O)[C@]2(C)[C@@H](OC(=O)c3ccc(C(=O)c4ccccc4)cc3)C[C@H]3OC[C@@]3(OC(C)=O)[C@H]2[C@H](OC(=O)c2ccccc2)[C@]2(O)C[C@H](OC(C)=O)C(C)=C1C2(C)C`, the Reduction is 88%. Consider `CC(=O)O[C@H]1C(=O)[C@]2(C)[C@@H](OC(=O)COc3cccc4ccccc34)C[C@H]3OC[C@@]3(OC(C)=O)[C@H]2[C@H](OC(=O)c2ccccc2)[C@]2(O)C[C@H](OC(C)=O)C(C)=C1C2(C)C`, for which the Reduction came out at 60%.

`CC(=O)O[C@H]1C(=O)[C@]2(C)[C@@H](OC(=O)/C=C/c3ccc(C(=O)c4cc(C(F)(F)F)cc(C(F)(F)F)c4)cc3)C[C@H]3OC[C@@]3(OC(C)=O)[C@H]2[C@H](OC(=O)c2ccccc2)[C@]2(O)C[C@H](OC(C)=O)C(C)=C1C2(C)C`: the Reduction amounted to 36%. Take `CC(=O)O[C@H]1C(=O)[C@]2(C)[C@@H](OC(=O)/C=C/c3ccc4c(c3)C(=O)c3ccccc3-4)C[C@H]3OC[C@@]3(OC(C)=O)[C@H]2[C@H](OC(=O)c2ccccc2)[C@]2(O)C[C@H](OC(C)=O)C(C)=C1C2(C)C`: the Reduction is on record as 91%. Take `CC(=O)O[C@H]1C(=O)[C@]2(C)[C@@H](OC(=O)c3cnc4ccccc4c3)C[C@H]3OC[C@@]3(OC(C)=O)[C@H]2[C@H](OC(=O)c2ccccc2)[C@]2(O)C[C@H](OC(C)=O)C(C)=C1C2(C)C`: the Reduction came to 41%. For `CC(=O)O[C@H]1C(=O)[C@]2(C)[C@@H](OC(=O)/C=C/c3ccc(C(=O)c4ccccc4)cc3)C[C@H]3OC[C@@]3(OC(C)=O)[C@H]2[C@H](OC(=O)c2ccccc2)[C@]23OC(=O)O[C@H]2[C@H](OC(C)=O)C(C)=C1C3(C)C`, the Reduction was 94%.
